Measured values from paper PMC6156755, “Using Human Plasma as an Assay Medium in Caco-2 Studies Improves Mass Balance for Lipophilic Compounds” (Pharmaceutical Research, 2018).
Where two headings read alike, the source gives them in different places. Marks after values point to notes of the source that are not given here.

How the values were obtained:
[1] = human; values from the literature; cited from earlier work
[2] = Human plasma protein binding (ultracentrifugation or rapid equilibrium dialysis); type: in vitro ADME; conditions: for fraction unbound / fraction unbound at 6 h: pH 7.4, read-out: fu (fraction unbound in plasma); for fraction unbound: neat human plasma, 37°C, concentration comparable to Caco-2 assay
Description: Binding was assessed using one of two methods: ultracentrifugation ([31]) using neat human plasma or rapid equilibrium dialysis (RED) using either neat or diluted plasma. […] To allow analysis with a single calibration curve, the total plasma and protein-free supernatant samples were ‘matrix-matched’ by taking aliquots of protein-free supernatant samples and adding to fresh tubes containing an equal volume of blank plasma, or taking aliquots of the total plasma samples and adding to fresh tubes containing an equal volume of Dulbecco’s phosphate-buffered saline (DPBS). In this way, the final composition of both the protein-free supernatant samples and the total plasma samples were ‘matched’ prior to the analysis against a common calibration curve prepared in a 1:1 mixture of human plasma and DPBS. All samples were then stored frozen at −80°C until analysis.
The holding plate was then placed on a plate shaker (set at 800 rpm; ThermoMixer C, Eppendorf) and maintained at 37°C under a 2% CO2 atmosphere. The dialysis was conducted for 6 h, assuming steady state was achieved by the end of this period ([32]). Samples were then removed from both the donor and dialysate chambers of each RED insert. […] Samples were matrix matched as described above (but using PBS buffer instead of DPBS) and stored at −80°C until analysis.
For the more lipophilic compounds with potential for very high binding, the RED method was used with diluted plasma to increase the chance of detecting concentrations in the dialysate samples. Diluted human plasma (10% v/v in pH 7.4 phosphate buffered saline) was spiked with each compound (at 10% of the concentration used for the Caco-2 experiment with neat plasma) and binding conducted as described above. The binding in neat plasma was then calculated by correcting for the dilution as described below.
For binding measurements in neat plasma by ultracentrifugation, the fraction unbound (fu) was calculated from the ratio of the average unbound concentration in protein free supernate (Cunbound) to the average total concentration in non-centrifuged plasma (Ctotal). The standard deviation (SD) for the fu value was calculated using the propagation of errors approach as described previously ([33]). For binding measurements using the RED method in neat plasma, fu was calculated from the ratio of the dialysate to total plasma concentration for each dialysis unit and the mean and SD calculated for replicate units (n = 3).
For RED binding assessments using 10% plasma, the fu − diluted for individual dialysis units was calculated in the same way as described above.

[3] = Caco-2 permeability assay with pH 7.4 buffer or human plasma in both chambers; conditions: human; for efflux ratio: Caco-2, pH 7.4, Efflux ratio (B-A/A-B)
[4] = in vitro; conditions: human; for Papp A→B: Caco-2, pH 7.4, Papp A-B; for Papp B→A: Caco-2, pH 7.4, Papp B-A
[5] = system: Caco-2 cell monolayer; experiment: Caco-2 permeability assay with pH 7.4 buffer or human plasma in both chambers; conditions: for Permeability Classification: criteria of Table V
[6] = system: Caco-2 cell monolayer
[7] = Caco-2, pH 7.4, Papp A-B, buffer pH 7.4 in both chambers
[8] = Caco-2, pH 7.4, Papp A-B, human plasma in both chambers, corrected for fu in donor
[9] = Caco-2, pH 7.4, Papp B-A, buffer pH 7.4 in both chambers
[10] = Caco-2, pH 7.4, Papp B-A, human plasma in both chambers, corrected for fu in donor
[11] = buffer (HBSS/HEPES pH 7.4) in both chambers
[12] = RED with diluted human plasma (10% v/v), corrected for dilution, < values from LLOQ

Row | SMILES | fraction unbound [2] | Papp A→B [3, 7] [×10⁻⁶ cm/s] | Papp A→B [3, 8] [×10⁻⁶ cm/s] | Papp B→A [3, 9] [×10⁻⁶ cm/s] | Mass balance A-B [5, 11] [%] | Mass balance B-A ([5]; buffer pH 7.4 in both chambers) [%] | Mass balance A-B ([5]; human plasma in both chambers) | Mass balance B-A ([5]; human plasma in both chambers) | Permeability Classification ([5]; buffer pH 7.4) | Permeability Classification ([5]; human plasma) | other results
1 | COc1ccc2cc([C@H](C)C(=O)O)ccc2c1 [Naproxen, naproxen] |  |  |  |  |  |  |  |  |  |  | Human FA (fraction absorbed) [1]: 100%
2 | COCCc1ccc(OCC(O)CNC(C)C)cc1 (centres unmarked) [Metoprolol, metoprolol] | 0.7 | 50 ± 6.1 |  |  |  |  |  |  |  |  | Papp A→B [4]: 57 ± 5.8 ×10⁻⁶ cm/s
3 | COC(=O)c1ccccc1-c1c2ccc(=N)cc-2oc2cc(N)ccc12 [Rhodamine 123, rhodamine 123] | 0.35 | 1.6 ± 0.32 | 1.2 ± 0.058 | 9.7 ± 1.1 | 99 ± 11 | 99 ± 1.2 | 98 ± 1.5% | 92 ± 4.7% |  |  | efflux ratio ([3]; buffer pH 7.4 in both chambers): 6.1 ± 1.4; efflux ratio ([3]; human plasma in both chambers): 12 ± 1.4; Papp B→A [3, 10]: 14 ± 1.5 ×10⁻⁶ cm/s
4 | CC(C)(C)NC(=O)[C@@H]1C[C@@H]2CCCC[C@@H]2CN1C[C@@H](O)[C@H](Cc1ccccc1)NC(=O)[C@H](CC(N)=O)NC(=O)c1ccc2ccccc2n1 [Saquinavir] | 0.04 | 2.4 ± 1.4 | 8.4 ± 2.5 | 34 ± 2.1 | 76 ± 0.58 | 60 ± 5.6 | 100 ± 7.2^b % | 110 ± 7.5^b % |  |  | Papp B→A [3, 10]: 140 ± 42 ×10⁻⁶ cm/s
5 | O=C1C(O)=C([C@H]2CC[C@H](c3ccc(Cl)cc3)CC2)C(=O)c2ccccc21 [Atovaquone, atovaquone] |  |  | > 300 |  | <10 | <10 | 99 ± 1.2% | 97 ± 2.3% | Low (Papp < 0.839) | High (Papp ≥ 8.15) | fraction unbound at 6 h [2, 12]: < 0.0002; Papp ([3]; Caco-2, pH 7.4): > 300 ×10⁻⁶ cm/s; Papp B→A [3, 10]: > 300 ×10⁻⁶ cm/s; Mass balance A-B ([5]; buffer (HBSS/HEPES pH 7.4) in both chambers, listed as atovaquone): < 10%; Mass balance B-A ([5]; buffer pH 7.4 in both chambers, listed as atovaquone): < 10%
6 | CCN(CC)Cc1cc(Nc2ccnc3cc(Cl)ccc23)ccc1O [Amodiaquine, amodiaquine] | 0.12 | 4.5 ± 0.12 |  | 7.1 ± 1.9 | 33 ± 1.7 | 93 ± 4.0 | 81 ± 6.1^b % | 88 ± 4.6% | Intermediate | High (Papp ≥ 8.15) | efflux ratio ([3]; buffer pH 7.4 in both chambers): 1.6 ± 0.43; efflux ratio ([3]; human plasma in both chambers): 0.7 ± 0.12; Papp A→B [4]: 90 ± 8.3 ×10⁻⁶ cm/s; Papp B→A [4]: 63 ± 9.6 ×10⁻⁶ cm/s
7 | CCCCN(CCCC)CCC(O)c1cc2c(Cl)cc(Cl)cc2c2cc(C(F)(F)F)ccc12 (centres unmarked) [Halofantrine, halofantrine] |  |  |  |  | <10 | <10 | 83 ± 7.6% | 87 ± 4.4% | Low (Papp < 0.839) | High (Papp ≥ 8.15) | fraction unbound at 6 h [2, 12]: < 0.0001; Papp ([3]; Caco-2, pH 7.4): > 300 ×10⁻⁶ cm/s; Papp A→B ([3]; Caco-2, pH 7.4): > 300 ×10⁻⁶ cm/s; Papp B→A ([3]; Caco-2, pH 7.4): > 300 ×10⁻⁶ cm/s; Mass balance A-B ([5]; buffer (HBSS/HEPES pH 7.4) in both chambers, listed as halofantrine): < 10%; Mass balance B-A ([5]; buffer pH 7.4 in both chambers, listed as halofantrine): < 10%
8 | CC(C)NCC(O)COc1ccc(CC(N)=O)cc1 (centres unmarked) [Atenolol, atenolol] |  |  |  |  |  |  |  |  |  |  | Human FA (fraction absorbed) [1]: 55%
9 | OC(c1cc(C(F)(F)F)nc2c(C(F)(F)F)cccc12)C1CCCCN1 (centres unmarked) [Mefloquine, mefloquine] |  | 2.1 ± 0.65 |  | 4.7 ± 0.35 | 15 ± 2.6 | 86 ± 6.7 | 70 ± 2.6^b % | 86 ± 3.1% | Intermediate | High (Papp ≥ 8.15) | fraction unbound at 6 h [2, 12]: 0.015; efflux ratio ([3]; buffer pH 7.4 in both chambers): 2.2 ± 0.7; efflux ratio ([3]; human plasma in both chambers): 0.83 ± 0.11; Mass balance A-B ([5]; human plasma in both chambers, listed as mefloquine): 60–70%; Papp A→B [4]: 180 ± 20 ×10⁻⁶ cm/s; Papp B→A [4]: 150 ± 10 ×10⁻⁶ cm/s
10 | CNC(=C[N+](=O)[O-])NCCSCc1ccc(CN(C)C)o1 [Ranitidine, ranitidine] | 0.92 | 0.99 ± 0.11 | 2.1 ± 0.058 |  | 97 ± 11 |  | 92 ± 7.2% |  |  |  | Human FA (fraction absorbed) [1]: 50%; Mass balance ([5]; both directions (where assessed) and both media): > 80%
11 | CC(C)NCC(O)COc1cccc2ccccc12 (centres unmarked) [Propranolol, propranolol] | 0.25 | 58 ± 4.5 |  | 52 ± 4 |  | 97 ± 0.58 |  | 99 ± 2.3% |  |  | Increase in Papp using plasma compared to buffer ([6]; human, Caco-2, pH 7.4): 2-3 fold; Papp A→B [4]: 120 ± 35 ×10⁻⁶ cm/s; Papp B→A [4]: 110 ± 19 ×10⁻⁶ cm/s
12 | CC(C)(C)NCC(O)COc1ccc(NC(=O)NC2CCCCC2)cc1 (centres unmarked) [Talinolol, talinolol] | 0.48 |  |  |  |  |  |  |  |  |  | 
13 | CC(C)(C)NCc1cc(Nc2ccnc3cc(Cl)ccc23)c2c(c1O)CCCC2 [Naphthoquine, naphthoquine] |  |  |  |  |  |  |  |  |  |  | Efflux ratio (B-A/A-B) ([6]; Caco-2): 0.78 ± 0.12; Mass balance B-A ([6]; Caco-2): 94 ± 14%; Papp A-B ([6]; Caco-2): 230 ± 32^b 10^−6 cm/s; Papp B-A ([6]; Caco-2): 180 ± 10^b 10^−6 cm/s; Efflux ratio (B-A/A-B) ([6]; Caco-2, pH 7.4): 2.0 ± 1.3; Mass balance A-B ([6]; Caco-2, pH 7.4): 31 ± 7.2%; Mass balance B-A ([6]; Caco-2, pH 7.4): 70 ± 10%; Papp A-B ([6]; Caco-2, pH 7.4): 2.2 ± 1.3 10^−6 cm/s; Papp B-A ([6]; Caco-2, pH 7.4): 4.5 ± 1.4 10^−6 cm/s; Permeability Classification ([6]; Caco-2, pH 7.4): Intermediate; fu (fraction unbound in plasma) [2, 12]: 0.019 ^e
14 | Clc1ccc2c(N3CCN(CCCN4CCN(c5ccnc6cc(Cl)ccc56)CC4)CC3)ccnc2c1 [Piperaquine, piperaquine] |  |  | > 300 |  | <10 | <10 | 100 ± 8.1% | 100 ± 5.8% | Low (Papp < 0.839) | High (Papp ≥ 8.15) | fraction unbound at 6 h [2, 12]: < 0.001; Papp ([3]; Caco-2, pH 7.4): > 300 ×10⁻⁶ cm/s; Papp B→A [3, 10]: > 300 ×10⁻⁶ cm/s; Mass balance A-B ([5]; buffer (HBSS/HEPES pH 7.4) in both chambers, listed as piperaquine): < 10%; Mass balance B-A ([5]; buffer pH 7.4 in both chambers, listed as piperaquine): < 10%
15 | CCN(CC)CCCC(C)Nc1ccnc2cc(Cl)ccc12 (centres unmarked) [Chloroquine, chloroquine] |  |  |  |  |  |  |  |  | High (Papp ≥ 4.90) | High (Papp ≥ 8.15) | Permeability Classification ([5]; buffer pH 7.4, listed as chloroquine): high; Permeability Classification ([5]; human plasma, listed as chloroquine): high
